Data reported in patent publication US20260209262A1, “MEMBRANE FILTRATION-ASSISTED SOLUTION PHASE OLIGONUCLEOTIDE SYNTHESIS” (EXACTMER LIMITED, priority 2022, published 2026).
Values after ≈ are worked out from the molar mass of the structure shown.

Assay: Solubility of protected phosphoramidites in acetonitrile (aliquots added until a clear solution)
Type: physicochemical
Settings: for Solubility: 30° C.
Protocol: A range of 5′-O-Dmtr-nucleoside-3′-O-(cyanoethyl-N, N-diisopropyl) phosphoramidites (FIG. 1. compounds 1-5) were studied to determine their suitability for solution-phase oligonucleotide synthesis in acetonitrile. Each compound (ca. 0.5 g) was placed in a flask with a magnetic stirrer immersed in an oil bath held at 30° C. To the flask was added acetonitrile (0.200 mL) and the contents stirred for 2 min. After this, further aliquots of acetonitrile (0.050 mL) were added, each time followed by stirring for 2 min. The volume of acetonitrile required to establish a clear solution was recorded. The solubility so determined is recorded in Table 1.

Structure (SMILES)	solubility in acetonitrile	Solubility	increase in solubility by protection of N3 (relative to unprotected 2a)
COc1ccc(C(OC[C@H]2O[C@@H](n3ccc(=O)[nH]c3=O)[C@H](OC)[C@@H]2OP(OCCC#N)N(C(C)C)C(C)C)(c2ccccc2)c2ccc(OC)cc2)cc1 (some centres unmarked) [Compound 1a]	50 mM (≈ 38 mg/mL)	70 mM (≈ 53.3 mg/mL)	–
COc1ccc(C(OCC2OC(n3cc(C)c(=O)[nH]c3=O)CC2OP(OCCC#N)N(C(C)C)C(C)C)(c2ccccc2)c2ccc(OC)cc2)cc1 (centres unmarked) [Compound 2a]	–	1160 mM (≈ 864 mg/mL)	–
COc1ccc(C(OCC2OC(n3cnc4c(=O)[nH]c(NC(=O)C(C)C)nc43)C(OC)C2OP(OCCC#N)N(C(C)C)C(C)C)(c2ccccc2)c2ccc(OC)cc2)cc1 (centres unmarked) [Compound 5]	–	1280 mM (≈ 1110 mg/mL)	–
COc1ccc(C(OC[C@H]2O[C@@H](n3ccc(=O)n(C(=O)c4ccccc4)c3=O)[C@H](OC)[C@@H]2OP(OCCC#N)N(C(C)C)C(C)C)(c2ccccc2)c2ccc(OC)cc2)cc1 (some centres unmarked) [Compound 1b]	–	1920 mM (≈ 1660 mg/mL)	–
COc1ccc(C(OC[C@H]2O[C@@H](n3ccc(NC(C)=O)nc3=O)[C@H](OC)[C@@H]2OP(OCCC#N)N(C(C)C)C(C)C)(c2ccccc2)c2ccc(OC)cc2)cc1 (some centres unmarked) [Compound 3]	–	1300 mM (≈ 1040 mg/mL)	–
COc1ccc(C(OCC2OC(n3cnc4c(NC(=O)c5ccccc5)ncnc43)C(OC)C2OP(OCCC#N)N(C(C)C)C(C)C)(c2ccccc2)c2ccc(OC)cc2)cc1 (centres unmarked) [Compound 4]	–	1210 mM (≈ 1070 mg/mL)	–
COc1ccc(C(=O)n2c(=O)ccn(C3OC(COC(c4ccccc4)(c4ccc(OC)cc4)c4ccc(OC)cc4)C(OP(OCCC#N)N(C(C)C)C(C)C)C3OC)c2=O)cc1 (centres unmarked) [Compound 1d]	–	2420 mM (≈ 2170 mg/mL)	–
COc1ccc(C(OC[C@H]2O[C@@H](n3cc(C)c(=O)n(C(=O)c4ccccc4)c3=O)C[C@@H]2OP(OCCC#N)N(C(C)C)C(C)C)(c2ccccc2)c2ccc(OC)cc2)cc1 (some centres unmarked) [Compound 2b]	–	1530 mM (≈ 1300 mg/mL)	more than 30%
COc1ccc(C(OCC2OC(n3ccc(=O)n(C(=O)c4ccc(C(C)(C)C)cc4)c3=O)C(OC)C2OP(OCCC#N)N(C(C)C)C(C)C)(c2ccccc2)c2ccc(OC)cc2)cc1 (centres unmarked) [Compound 1c]	–	1740 mM (≈ 1600 mg/mL)	–
